Results reported in patent US20230104311A1, “NOVEL 6-SUBSTITUTED 7-DEAZAPURINES AND CORRESPONDING NUCLEOSIDES AS MEDICAMENTS” (KATHOLIEKE UNIVERSITEIT LEUVEN, priority 2020, published 2023).
Several values for one entry are separate records, joined by “and”; a condition that tells them apart may be missing. Equal entries are not always repeated. Entries after “also recorded” stand apart in the source; their conditions may differ. Where two headings read alike, the source gives them in different places.

Legend:
human norovirus (HuNoV) = test: Inhibition of in vitro replication of genogroup 1 NoV in HG23 NoV replicon cells (qRT-PCR of intracellular RNA); assay type: cell-based; settings: for inhibitory activity against human norovirus (in words): HuNoV assay
[1] = Cytotoxicity (CC50) determined in parallel in uninfected cells (β-actin toxicity); settings: human
HuNoV = settings: human B cell BJAB cell line; read-out: EC50 HuNoV replication; cited from earlier work
murine norovirus (MNV) = settings: read-out: EC50 murine norovirus (MNV) polymerase; cited from earlier work
[2] = system: MERS Coronavirus strain EMC; test: microbe, parasite or virus in culture; assay type: cell-based
[3] = system: Influenza A virus strain California/07/2009; test: Inhibition of in vitro replication of Influenza A virus; assay type: cell-based; settings: for EC50: Influenza A virus strain California/07/2009
in vitro = settings: human
uninfected cells [4] = test: Cytotoxicity (CC50) determined in parallel in uninfected cells (β-actin toxicity); settings: HuNoV assay
uninfected cells [5] = system: uninfected cells
norovirus = settings: read-out: EC50 norovirus replication; cited from earlier work
HCV [6] = settings: anti-HCV in vitro; cited from earlier work
HCV [7] = settings: read-out: EC50 HCV in cell cultures; cited from earlier work
poliovirus (PV) = settings: read-out: IC50 poliovirus (PV) replication; cited from earlier work
dengue virus (DENV2) = settings: read-out: IC50 dengue virus (DENV2) replication; cited from earlier work
[8] = Norovirus, HG23, read-out: EC50 (effective concentration to inhibit the replication of the virus by 50%), HuNoV, HG23 NoV replicon cells
[9] = Norovirus, HuNoV, HG23 NoV replicon cells, read-out: EC90 (effective concentration to inhibit the replication of the virus by 90%)
[10] = Norovirus, HG23, HuNoV, HG23 NoV replicon cells, read-out: EC50 (effective concentration to inhibit the replication of the virus by 50%)
[11] = HuNoV, HG23 NoV replicon cells, read-out: EC50 (effective concentration to inhibit the replication of the virus by 50%)
[12] = HuNoV, HG23 NoV replicon cells, read-out: EC90 (effective concentration to inhibit the replication of the virus by 90%)

For `Cc1ncnc2c1ccn2[C@@H]1O[C@H](CO)[C@@H](O)[C@H]1O` [Compound 11b, 6-Methyl-9-β-D-ribofuranosyl-7-deazapurine], the “inhibitory activity against human norovirus (in words)” value (human norovirus (HuNoV)) was “good activity”, the EC50 (human norovirus (HuNoV); [8]) was 12 nM and the EC90 (human norovirus (HuNoV); [9]) was 0.068 µM. For the same molecule, the CC50 ([1]; uninfected cells) was 0.53 µM.
For `C[C@@]1(O)[C@H](O)[C@@H](CO)O[C@H]1n1ccc(N)nc1=O` [2’Cmethyl Cytidine, 2′-C-Methyl-cytidine, reference compound], the EC50 (HuNoV) is listed as 300 nM, the EC50 (human norovirus (HuNoV); [10]) is listed as 2630 nM and the EC90 (human norovirus (HuNoV); [9]) is listed as 13.8 µM. For the same molecule, the EC50 (murine norovirus (MNV)) was 2000 nM and the CC50 ([1]; uninfected cells) was > 25 µM.
With `CN(C)c1ccc(-c2ncnc3c2ccn3[C@@H]2O[C@H](CO)[C@@H](O)[C@H]2O)cc1` [Compound 11p, 6-(4-(Dimethylamino)phenyl)-9-β-D-ribofuranosyl-7-deazapurine] the EC50 (human norovirus (HuNoV); [10]) was 92400 nM, the EC90 (human norovirus (HuNoV); [9]) was > 100 µM and the CC50 ([1]; uninfected cells) was > 100 µM.
With `CCc1ncnc2c1ccn2[C@@H]1O[C@H](CO)[C@@H](O)[C@H]1O` [Compound 11d, 6-Ethyl-9-β-D-ribofuranosyl-7-deazapurine] the EC50 (human norovirus (HuNoV); [8]) was 23 nM, the EC90 (human norovirus (HuNoV); [9]) was 0.495 µM and the “inhibitory activity against MERS Coronavirus (in words)” value [2] was “moderate inhibitory activity”. The EC50 ([2]; Middle East respiratory syndrome-related coronavirus) was 9.2 µM, the “inhibitory activity against Influenza A virus (in words)” value [3] was “moderate inhibitory activity” and the EC50 [3] was 420 nM. For the same molecule, the CC50 (in vitro) was > 100 µM, the “cytotoxicity (in words)” value (uninfected cells [4]) was “did not display significant cytotoxicity” and the CC50 [1] was 10.2 µM.
For `Cc1ccc(-c2ncnc3c2ccn3[C@@H]2O[C@H](CO)[C@@H](O)[C@H]2O)cc1` [Compound 11a, 6-(4-Methylphenyl)-9-β-D-ribofuranosyl-7-deazapurine], the EC90 (human norovirus (HuNoV); [9]) was > 100 µM and the CC50 ([1]; uninfected cells) was > 100 µM.
For `CCc1ccc(-c2ncnc3c2ccn3[C@@H]2O[C@H](CO)[C@@H](O)[C@H]2O)cc1` [Compound 11q, 6-(4-Ethylphenyl)-9-β-D-ribofuranosyl-7-deazapurine], the EC50 (human norovirus (HuNoV); [10]) was 57800 nM, the EC90 (human norovirus (HuNoV); [9]) was > 100 µM and the CC50 ([1]; uninfected cells) was > 100 µM.
For `CCCc1ncnc2c1ccn2[C@@H]1O[C@H](CO)[C@@H](O)[C@H]1O` [Compound 11e, 6-Propyl-9-β-D-ribofuranosyl-7-deazapurine], the “inhibitory activity against human norovirus (in words)” value (human norovirus (HuNoV)) was “potent activity”, the EC50 (human norovirus (HuNoV); [8]) was 16 nM and the EC90 (human norovirus (HuNoV); [9]) was 19 µM. For the same molecule, the “cytotoxicity (in words)” value (uninfected cells [4]) was “did not display significant cytotoxicity; also recorded: without significant cytotoxicity” and the CC50 ([1]; uninfected cells) was > 100 µM.
For `OC[C@H]1O[C@@H](n2ccc3c(C4CC4)ncnc32)[C@H](O)[C@@H]1O` [Compound 11j, 6-Cycloproyl-9-β-D-ribofuranosyl-7-deazapurine], the EC50 (human norovirus (HuNoV); [11]) was 205 nM, the EC90 (human norovirus (HuNoV); [12]) was > 100 µM and the CC50 (uninfected cells [5]) was > 100 µM.
For `CC(C)Cc1ncnc2c1ccn2[C@@H]1O[C@H](CO)[C@@H](O)[C@H]1O` [Compound 11i, 6-Isobutyl-9-β-D-ribofuranosyl-7-deazapurine], the EC50 (human norovirus (HuNoV); [10]) was 2 nM, the EC90 (human norovirus (HuNoV); [9]) was > 100 µM and the CC50 ([1]; uninfected cells) was > 100 µM.
In the case of `OC[C@H]1O[C@@H](n2ccc3c(C4CCCC4)ncnc32)[C@H](O)[C@@H]1O` [Compound 11k, 6-Cyclopentyl-9-β-D-ribofuranosyl-7-deazapurine], the EC50 (human norovirus (HuNoV); [10]) is reported as > 100000 nM, the EC90 (human norovirus (HuNoV); [9]) is reported as > 100 µM and the CC50 ([1]; uninfected cells) is reported as > 100 µM.
In the case of `CCCCCc1ncnc2c1ccn2[C@@H]1O[C@H](CO)[C@@H](O)[C@H]1O` [Compound 11f, 6-Pentyl-9-β-D-ribofuranosyl-7-deazapurine], the EC50 (human norovirus (HuNoV); [8]) is reported as 84 nM, the EC90 (human norovirus (HuNoV); Norovirus, HG23, read-out: EC90 (effective concentration to inhibit the replication of the virus by 90%)) is reported as > 100 µM and the CC50 ([1]; uninfected cells) is reported as > 100 µM.
With `CC(C)c1ccc(-c2ncnc3c2ccn3[C@@H]2O[C@H](CO)[C@@H](O)[C@H]2O)cc1` [Compound 11m, 6-(4-isoproylphenyl)-9-β-D-ribofuranosyl-7-deazapurine] the EC50 (human norovirus (HuNoV); [11]) was 2 nM and < 1 nM, the EC90 (human norovirus (HuNoV); [12]) was 55 µM and the CC50 (uninfected cells [5]) was > 100 µM.
In the case of `CCCCCCc1ncnc2c1ccn2[C@@H]1O[C@H](CO)[C@@H](O)[C@H]1O` [Compound 11g, 6-Hexyl-9-β-D-ribofuranosyl-7-deazapurine], the EC50 (human norovirus (HuNoV); [10]) is reported as 130 nM, the EC90 (human norovirus (HuNoV); [9]) is reported as 57.6 µM and the CC50 ([1]; uninfected cells) is reported as 62.3 µM.
In the case of `OC[C@H]1O[C@@H](n2ccc3c(-c4ccccc4)ncnc32)[C@H](O)[C@@H]1O` [Compound 11o, 6-Phenyl-9-β-D-ribofuranosyl-7-deazapurine], the EC50 (human norovirus (HuNoV); [10]) is reported as 211 nM, the EC90 (human norovirus (HuNoV); [9]) is reported as 61.9 µM and the CC50 ([1]; uninfected cells) is reported as > 100 µM.
For `OC[C@H]1O[C@@H](n2ccc3c(C4CCCCC4)ncnc32)[C@H](O)[C@@H]1O` [Compound 11l, 6-Cyclohexyl-9-β-D-ribofuranosyl-7-deazapurine], the “inhibitory activity against human norovirus (in words)” value (human norovirus (HuNoV)) was “potent activity”, the EC50 (human norovirus (HuNoV); [11]) was 180 nM and the EC50 (human norovirus (HuNoV); [8]) was 180 nM. The EC90 (human norovirus (HuNoV); [9]) was 7.24 µM, the “cytotoxicity (in words)” value (uninfected cells [4]) was “did not display significant cytotoxicity; also recorded: without significant cytotoxicity” and the CC50 ([1]; uninfected cells) was 42.4 µM.
For `NC(=O)c1ncn([C@@H]2O[C@H](CO)[C@@H](O)[C@H]2O)n1` [Ribavirin, reference compound], the EC50 (norovirus) is listed as 43 µM, the EC50 [3] is listed as 3600 nM and the CC50 (in vitro) is listed as > 1000 µM.
In the case of `C[C@@]1(O)[C@H](O)[C@@H](CO)O[C@H]1c1cc(C(N)=O)c2c(N)ncnn12` [7-carboamido analogue 2], the “improvement in potency relative to the parent compound 1” value (HCV [6]) is given as 40 fold.
For `COc1ccc(-c2ncnc3c2ccn3[C@@H]2O[C@H](CO)[C@@H](O)[C@H]2O)cc1` [Compound 11n, 6-(4-Methoxylphenyl)-9-β-D-ribofuranosyl-7-desazapurine], the EC50 (human norovirus (HuNoV); [10]) was 94 nM, the EC90 (human norovirus (HuNoV); [9]) was > 100 µM and the CC50 ([1]; uninfected cells) was > 100 µM.
In the case of `CC(C)c1ncnc2c1ccn2[C@@H]1O[C@H](CO)[C@@H](O)[C@H]1O` [Compound 11c, 6-Isopropyl-9-β-D-ribofuranosyl-7-deazapurine], the “inhibitory activity against human norovirus (in words)” value (human norovirus (HuNoV)) is reported as “potent activity”, the EC50 (human norovirus (HuNoV); [8]) is reported as 24 nM and the EC90 (human norovirus (HuNoV); [9]) is reported as 2.69 µM. For the same molecule, the “cytotoxicity (in words)” value (uninfected cells [4]) was “did not display significant cytotoxicity; also recorded: without significant cytotoxicity” and the CC50 ([1]; uninfected cells) was > 100 µM.
For `C[C@@]1(O)[C@H](O)[C@@H](CO)O[C@H]1c1ccc2c(N)ncnn12` [2′-C-methyl-4-aza-7,9-dideazaadenosine], the EC50 (HCV [7]) is listed as 1980 nM.
In the case of `Cc1ncnc2c1ccn2[C@@H]1O[C@H](CO)[C@@H](O)[C@H]1O` [Compound 3], the IC50 (poliovirus (PV)) is given as 11 nM and the IC50 (dengue virus (DENV2)) is given as 39 nM.
